The record followed here is patent US20260062422A1 (Halda Therapeutics OpCo, Inc., priority 2022, published 2026).

Assay [1] relates to 22RV1 cells overexpressing FL-AR (22RV1 Parental(FL-AR^hi)). Nature of the assay: 22RV1 apoptosis assay (Caspase-Glo 3/7), cells overexpressing FL-AR. The assay is classed as cell-based. The settings on record: Caspase 3/7 Glo assay. The protocol: 22RV1 Parental and 22RV1/AR cells were seeded in 25 μL growth media in poly-d lysine coated black clear-bottom 384-well plates at 5000 cells/well with Phenol Red Free RPMI containing 10% charcoal stripped serum and 1% PenStrep. Following seeding, plates were spun at 300×g for 30 seconds, then equilibrated to room temperature for 30 minutes, and moved into the incubator. 24 hours after seeding, compounds were titrated in 100% DMSO and diluted in growth medium. 25 μL of the compound/medium mixture was added to cells, bringing the total volume in each well to 50 μL. DMSO was used as a negative control.
After treatment, plates were spun at 300×g for 30 seconds, then cultured at 37° C. with 5% CO2 for 24 or 48 hours in a humidified tissue culture incubator. After 24 or 48 hours of treatment, Caspase 3/7 activity was quantified with Caspase-Glo 3/7 reagent (Promega). Plates were equilibrated to room temperature for 30 minutes, then 25 μL of Caspase-Glo 3/7 reagent was added to cells, bringing the total volume in each well to 75 μL. After reagent was added, plates were spun at 300×g for 30 seconds then mixed on a shaker for two minutes at 500 rpm and then incubated in the dark at room temperature for one hour. Following incubation, plates were spun at 300×g for 30 seconds, sealed with an optical adhesive cover, and luminescence reads were measured with an EnVision Plate Reader. […]

The target in assay [2] is T1, progesterone receptor ligand binding domain (LBD) (Homo sapiens, UniProt P06401).
T1 construct: GST-tagged PR LBD, Fluormone tracer, and compound were mixed; purchased Life Technologies A15905 or a15906
T1 sequence (P06401 679-913 limits assumed): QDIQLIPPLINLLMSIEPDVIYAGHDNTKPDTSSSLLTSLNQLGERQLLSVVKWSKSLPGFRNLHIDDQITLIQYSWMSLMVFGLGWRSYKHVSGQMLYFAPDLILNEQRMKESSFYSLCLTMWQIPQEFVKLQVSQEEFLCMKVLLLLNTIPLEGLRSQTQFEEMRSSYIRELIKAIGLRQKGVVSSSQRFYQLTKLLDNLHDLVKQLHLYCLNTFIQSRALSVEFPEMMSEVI
Nature of the assay: FP assay (PolarScreen Progesterone Receptor Competitor Assay) for binding to progesterone receptor LBD. The conditions noted are these: GST-tagged PR LBD, Fluormone tracer, fluorescence polarization, 2 hours; Table 17. The protocol: Compounds were tested using the PolarScreen™ Progesterone Receptor Competitor Assay Kit (Life Technologies Cat #A15905 or a15906), as per the manufacturer's instructions. Briefly, GST-tagged PR LBD, Fluormone tracer, and compound were mixed and incubated for 2 hours at room temperature in the dark. Following incubation, the plates were spun at 3000×g for 30 seconds, then sealed with an optical adhesive cover, and fluorescence polarization was measured using appropriate excitation and emission filters with an EnVision Plate Reader (Perkin Elmer). Compound concentration vs. mP value were plotted in Prism (GraphPad). A four-parameter non-linear regression curve fit was applied to dose-response data to determine the half-maximal inhibitory concentration (IC50) for each test compound.
On the technique in general: Polarisation of emitted light reports the rotation of a fluorescent probe.

Assay [3] relates to T-Rex 293 cell line SC cells having increased expression of progesterone receptor isoform B protein due to exposure to doxycycline. Nature of the assay: Cellular growth inhibition, T-Rex 293 SC cells with doxycycline (progesterone receptor isoform B induced), Example 47. The settings on record: progesterone receptor isoform B induced with 10 ng/mL doxycycline, 72 hours, CellTiter-Glo 2.0, Table 14 (Example 47). In kind it is cell-based. How it is done:
The following types of cells were prepared for this experiment: (i) a T-Rex 293 cell line having increased expression of progesterone receptor isoform B protein due to exposure to doxycycline and (ii) a T-Rex 293 cell line lacking increased expression of progesterone receptor isoform B protein. Ability of the test compounds to inhibit proliferation of the foregoing cell types was evaluated according to the procedures set forth below.
The doxycycline-inducible progesterone receptor isoform B protein expressing cell line was established using the following protocol: T-Rex 293 cells were purchased from Invitrogen (Cat #R71007) and transfected using Lipofectamine 2000 with the wild-type progesterone receptor B protein sequence cloned into the pcDNA4/TO vector. Transfected cells were selected using 400 μg/mL Zeocin (Invitrogen Cat #R25001). Following selection, single clones were raised and maintained in Dulbecco's Modified Eagle Medium (DMEM) supplemented with 10% w/w Tetracycline-free fetal bovine serum (FBS) and 250 μg/mL Zeocin. Clones were analyzed for expression of progesterone receptor isoform B protein in the presence and absence of 10 ng/mL doxycycline (Sigma Cat #D9891), and a single doxycycline-inducible clone (hereinafter “SC”) was selected for use in downstream assays.
The SC cells were seeded on poly-D-lysine coated, black clear-bottom 384-well plates at 2500/well, in 25 μL Phenol Red Free Dulbecco's Modified Eagle Medium (DMEM) supplemented with 10% w/w charcoal-dextran treated fetal bovine serum (FBS) and 1% w/w pen-strep, with or without 10 ng/mL doxycycline. Pen-Strep is a commercially available mixture of penicillin G and streptomycin, which is used in mammalian cell culture media to prevent bacterial contamination. Phenol Red Free Dulbecco's Modified Eagle Medium (DMEM) supplemented with 10% w/w charcoal-dextran treated fetal bovine serum (FBS) and 1% w/w pen-strep, with or without 10 ng/mL doxycycline is herein referred to as Treatment Medium. Following seeding of cells in the plates, the plates were spun at 300×g for 30 seconds, then equilibrated to room temperature for 30 minutes, and then deposited in a humidified tissue culture incubator maintained at 37° C. with 5% CO2.
At 24 hours after seeding of the cells, dilutions of test compound were prepared in DMSO and dissolved in Treatment Medium, to achieve a final DMSO concentration of 0.5% w/w, thereby providing the Test Compound Solution. A 25 μL aliquot of the Test Compound Solution was added to cells in the well plates. An equal volume of a solution containing DMSO and Treatment Medium was used as a negative control. Following treatment of cells with Test Compound Solution or said equal volume of a solution containing DMSO and Treatment Medium, the plates were spun at 300×g for 30 seconds, and then left in an incubator for 72 hours.
At the end of the treatment duration, cell viability was quantified with CellTiter-Glo 2.0 reagent (Promega Cat #G9243). For this purpose, plates were equilibrated to room temperature for 30 minutes, and then 25 μL of CellTiter-Glo 2.0 reagent was added to cells in the plate wells. Plates were then agitated on a shaker for two minutes at 500 rpm and subsequently incubated at room temperature for 10 minutes. Following incubation, the plates were spun at 3000×g for 30 seconds, then sealed with an optical adhesive cover, and luminescence readings were measured with an EnVision Plate Reader (Perkin Elmer).
Data was normalized using zero luminescence for baseline. A four-parameter non-linear regression curve fit was applied to dose-response data in GraphPad Prism data analysis software to determine the half-maximal growth inhibitory concentration (GI50) for each test compound.

Usually EC50 stands for the concentration giving half of the maximal effect. In the case of `Cc1sc2c(c1C)C(c1ccc(OC3CC4(CCN(c5ncc(C(=O)N[C@H]6C(C)(C)[C@H](Oc7ccc(C#N)c(Cl)c7)C6(C)C)cn5)CC4)C3)cc1)=N[C@@H](Cc1ncco1)c1nnc(C)n1-2` [Compound I-49, N-[3-(3-chloro-4-cyano-phenoxy)-2,2,4,4-tetramethyl-cyclobutyl]-2-[2-[4-[(9S)-4,5,13-trimethyl-9-(oxazol-2-ylmethyl)-3-thia-1,8,11,12-tetrazatricyclo[8.3.0.02,6]trideca-2(6),4,7,10,12-pentaen-7-yl]phenoxy]-7-azaspiro[3.5]nonan-7-yl]pyrimidine-5-carboxamide], the “apoptosis in 22RV1 FL-AR^hi cells as compared to parental 22RV1 FL-AR^low cells” value in assay [1] is listed as “highly apoptotic”. Moreover, the EC50 in assay [1] (Homo sapiens, 22RV1 cells overexpressing FL-AR (FL-AR^hi), 24 or 48 hours) was determined as 126 nM.
What is called IC50 is the concentration that gives 50% inhibition. Read a high IC50 as lower potency. `CCNC(=O)C[C@@H]1N=C(c2ccc(CCCN(C)c3ncc(C(=O)N[C@H]4C(C)(C)[C@H](Oc5ccc(C#N)c(Cl)c5)C4(C)C)cn3)cc2)c2c(sc(C)c2C)-n2c(C)nnc21` [Compound I-104] displayed an IC50 in assay [2] of 50 to 500 nM.
In turn, `CCNC(=O)C[C@@H]1N=C(c2ccc(N(C)C3CC(OC4CCN(c5ncc(C(=O)N[C@H]6C(C)(C)[C@H](Oc7ccc(C#N)c(Cl)c7)C6(C)C)cn5)CC4)C3)cc2)c2c(sc(C)c2C)-n2c(C)nnc21` (stereo partly drawn) [Compound I-130] showed an IC50 in assay [2] of less than 50 nM.
On to `CCNC(=O)C[C@@H]1N=C(c2ccc(N(C3CC3)C3CN(CC4CCN(c5ncc(C(=O)N[C@H]6C(C)(C)[C@H](Oc7ccc(C#N)c(Cl)c7)C6(C)C)cn5)CC4)C3)cc2)c2c(sc(C)c2C)-n2c(C)nnc21` [Compound I-129], for which the IC50 in assay [2] was less than 50 nM.
Turning to `Cc1sc2c(c1C)C(c1ccc(OCCOC3CCN(c4ncc(C(=O)N[C@H]5C(C)(C)[C@H](Oc6ccc(C#N)c(Cl)c6)C5(C)C)cn4)CC3)cc1)=N[C@@H](CC(=O)OC(C)(C)C)c1nnc(C)n1-2` [Compound I-235, tert-butyl 2-((S)-4-(4-(2-((1-(5-(((1r,3r)-3-(3-chloro-4-cyanophenoxy)-2,2,4,4-tetramethylcyclobutyl)carbamoyl)pyrimidin-2-yl)piperidin-4-yl)oxy)ethoxy)phenyl)-2,3,9-trimethyl-6H-thieno[3,2-f][1,2,4]triazolo[4,3-a][1,4]diazepin-6-yl)acetate], the IC50 in assay [2] is less than 50 nM.
The term GI50 denotes the concentration giving 50% growth inhibition. Lower therefore signals greater sensitivity of the cells. `Cc1sc2c(c1C)C(c1ccc(Cl)cc1)=N[C@@H](CC(=O)NCCCCCOC1CCN(c3ncc(C(=O)N[C@H]4C(C)(C)[C@H](Oc5ccc(C#N)c(Cl)c5)C4(C)C)cn3)CC1)c1nnc(C)n1-2` [Compound I-22, N-((1r,3r)-3-(3-chloro-4-cyanophenoxy)-2,2,4,4-tetramethylcyclobutyl)-2-(4-((5-(2-((S)-4-(4-chlorophenyl)-2,3,9-trimethyl-6H-thieno[3,2-A][1,2,4]triazolo[4,3-a][1,4]diazepin-6-yl)acetamido)pentyl)oxy)piperidin-1-yl)pyrimidine-5-carboxamide] gave a GI50 in assay [3] of more than 3000 nM.
For the molecule `CCNC(=O)C[C@@H]1N=C(c2ccc(N3CCN(CC4CCN(c5ncc(C(=O)N[C@H]6C(C)(C)[C@H](Oc7ccc(C#N)c(Cl)c7)C6(C)C)cn5)CC4)CC3)cc2)c2c(sc(C)c2C)-n2c(C)nnc21` [Compound I-105, N-[3-(3-chloro-4-cyano-phenoxy)-2,2,4,4-tetramethyl-cyclobutyl]-2-[4-[[4-[4-[(9S)-9-[2-(ethylamino)-2-oxo-ethyl]-4,5,13-trimethyl-3-thia-1,8,11,12-tetrazatricyclo[8.3.0.02,6]trideca-2(6),4,7,10,12-pentaen-7-yl]phenyl]piperazin-1-yl]methyl]-1-piperidyl]pyrimidine-5-carboxamide], in assay [2], the IC50 is 50 to 500 nM.
Regarding `Cc1sc2c(c1C)C(c1ccc(OC3CC4(CCN(c5ncc(C(=O)N[C@H]6C(C)(C)[C@H](Oc7ccc(C#N)c(Cl)c7)C6(C)C)cn5)CC4)C3)cc1)=NC(Cc1ncco1)c1nnc(C)n1-2` (stereo partly drawn) [Compound I-166], the IC50 in assay [2] lay within 50 to 500 nM.
